# Columns and labels:
# Format in all cases: in vivo
# [1] = test system: spring wheat (Triticum aestivum L; TRZAS); test: Postemergence herbicidal safening in cereal crops, greenhouse, visual injury: spring wheat; details: for TRZAS Ob (Observed values, % control): CQC-M 0
# Procedure: (§1) Evaluation of Postemergence Herbicidal Safening in Cereal Crops
# (§2) Seeds of the desired test plant species were planted in Sun Gro MetroMix® 306 planting mixture, which typically has a pH of 6.0 to 6.8 and an organic matter content of about 30 percent, in plastic pots with a surface area of 103.2 square centimeters (cm^2). When required to ensure good germination and healthy plants, a fungicide treatment and/or other chemical or physical treatment was applied. The plants were grown for 7-36 days (d) in a greenhouse with an approximate 14-hour (h) photoperiod which was maintained at about 18° C. during the day and 17° C. during the night. Nutrients and water were added on a regular basis and supplemental lighting was provided with overhead metal halide 1000-Watt lamps as necessary. The plants were employed for testing when they reached the second or third true leaf stage.
# (§3) Treatments consisted of the acids or esters of compounds 1-10 and cloquintocet-mexyl (CQC-M), fenchlorazole-ethyl, mefenpyr-diethyl alone and in combination. Weighed amounts of acid or methyl esters of the compounds of formula (I) were dissolved in a volume of 97:3 v/v acetone/dimethylsulfoxide (DMSO) to obtain concentrated solutions. […] The concentrated solutions of the test compound were diluted with the addition of an aqueous mixture containing acetone, water, isopropyl alcohol, DMSO, Agri-Dex crop oil concentrate, and Triton® X-77 surfactant in a 64.7:26.0:6.7:2.0:0.7:0.01 v/v ratio. Test compounds were diluted to the appropriate application rate with a dilution solution which was prepared by mixing the appropriate volume of 97:3 v/v acetone/DMSO and the appropriate volume of an aqueous mixture containing acetone, water, isopropyl alcohol, DMSO, Agri-Dex crop oil concentrate, and Triton® X-77 surfactant in a 64.7:26.0:6.7:2.0:0.7:0.01 v/v ratio. Compound requirements are based upon a 12 mL application volume at a rate of 187 liters per hectare (L/ha). The concentrated solutions of the safener were prepared following the same procedure. Weighed amounts of safener were dissolved in a volume of 97:3 v/v acetone/DMSO to obtain concentrated safener solutions.
# (§4) Spray solutions of the herbicide safener and test compound mixtures were prepared by adding the concentrated solutions to the appropriate amount of dilution solution to form 12 mL spray solution with active ingredients in combinations.
# (§5) Formulated compounds were applied to the plant material with an overhead Mandel track sprayer equipped with 8002E nozzles calibrated to deliver 187 L/ha over an application area of 0.503 square meters (m^2) at a spray height of 18 inches (43 centimeters (cm)) above average plant canopy. Control plants were sprayed in the same manner with the solvent blank.
# (§6) The treated plants and control plants were placed in a greenhouse as described above and watered by sub-irrigation to prevent wash-off of the test compounds. After 20-22 d, the condition of the test plants as compared with that of the control plants was determined visually and scored on a scale of 0 to 100 percent where 0 corresponds to no injury and 100 corresponds to complete kill.
# (§7) Colby's equation was used to determine the herbicidal effects expected from the mixtures (Colby, S. R. Calculation of the synergistic and antagonistic response of herbicide combinations. Weeds 1967, 15, 20-22.).
# (§8) The following equation was used to calculate the expected activity of mixtures containing two active ingredients, A and B: Expected=A+B−(A×B/100)
# (§9) A=observed efficacy of active ingredient A at the same concentration as used in the mixture.
# (§10) B=observed efficacy of active ingredient B at the same concentration as used in the mixture.
# [2] = test system: spring barley (Hordeum vulgare L; HORVS); test: Postemergence herbicidal safening in cereal crops, greenhouse, visual injury: spring barley; details: for HORVS Ob (Observed values, % control): CQC-M 0
# Procedure: as §1, §2, §3, §4, §5, §6, §7, §8, §9, §10
# [3] = test system: purple deadnettle (Lamium purpureum L; LAMPU); test: Postemergence herbicidal activity, greenhouse, visual injury: purple deadnettle; details: for LAMPU Ob (Observed values, % control): CQC-M 0
# Procedure: as §1, §2, §3, §4, §5, §6, §7, §8, §9, §10
# [4] = test system: kochia (Kochia scoparia L; KCHSC); test: Postemergence herbicidal activity, greenhouse, visual injury: kochia; details: CQC-M 0
# Procedure: as §1, §2, §3, §4, §5, §6, §7, §8, §9, §10
# [5] = test system: corn poppy (Papaver rhoeas L; PAPRH); test: Postemergence herbicidal activity, greenhouse, visual injury: corn poppy; details: CQC-M 0
# Procedure: as §1, §2, §3, §4, §5, §6, §7, §8, §9, §10
# [6] = test system: bird's-eye speedwell (Veronica persica L; VERPE); test: Postemergence herbicidal activity, greenhouse, visual injury: bird's-eye speedwell; details: CQC-M 0
# Procedure: as §1, §2, §3, §4, §5, §6, §7, §8, §9, §10
# [7] = test system: CIRAR; test: Postemergence herbicidal activity, greenhouse, visual injury: CIRAR; details: CQC-M 0
# Procedure: as §1, §2, §3, §4, §5, §6, §7, §8, §9, §10
# [8] = test system: SASKR; test: Postemergence herbicidal activity, greenhouse, visual injury: SASKR; details: CQC-M 0
# Procedure: as §1, §2, §3, §4, §5, §6, §7, §8, §9, §10
# [9] = test system: MATCH; test: Postemergence herbicidal activity, greenhouse, visual injury: MATCH; details: CQC-M 0
# Procedure: as §1, §2, §3, §4, §5, §6, §7, §8, §9, §10
# [10] = test system: wild mustard (Sinapis arvensis L.; SINAR); test: Postemergence herbicidal activity, greenhouse, visual injury: SINAR; details: CQC-M 0
# [11] = test system: wild pansy (Viola tricolor; VIOTR); test: Postemergence herbicidal activity, greenhouse, visual injury: VIOTR; details: CQC-M 0
# [12] = test system: lamb's-quarters (Chenopodium album L; CHEAL); test: Postemergence herbicidal activity, greenhouse, visual injury: lamb's-quarters; details: safener alone 140 g ae/ha; 20-22 d
# Procedure: as §1, §2, §3
# Spray solutions of the herbicide safener and test compound mixtures were prepared by adding the concentrated solutions to the appropriate amount of dilution solution to form 12 mL spray solution with active ingredients in combinations. […]
# The treated plants and control plants were placed in a greenhouse as described above and watered by sub-irrigation to prevent wash-off of the test compounds. After 20-22 d, the condition of the test plants as compared with that of the control plants was determined visually and scored on a scale of 0 to 100 percent where 0 corresponds to no injury and 100 corresponds to complete kill. […]
structure (smiles),measurement,setting,value
"COc1c(N)nc(-c2ccc(Cl)c(F)c2F)nc1C(=O)O [Compound 10, 6-amino-2-(4-chloro-2,3-difluorophenyl)-5-methoxypyrimidine-4-carboxylic acid]","TRZAS Ob (Observed values, % control)",[1]; Compound 10 8.75 g ae/ha,45%
same,"TRZAS Ob (Observed values, % control)",[1]; Compound 10 17.5 g ae/ha,55%
same,"TRZAS Ob (Observed values, % control)",[1]; Compound 10 35 g ae/ha,65%
same,"TRZAS Ob (Observed values, % control)",[1]; Compound 10 70 g ae/ha,70%
same,"TRZAS Ob (Observed values, % control)",[1]; Compound 10 140 g ae/ha,75%
same,"HORVS Ob (Observed values, % control)",[2]; Compound 10 8.75 g ae/ha,25%
same,"HORVS Ob (Observed values, % control)",[2]; Compound 10 17.5 g ae/ha,30%
same,"HORVS Ob (Observed values, % control)",[2]; Compound 10 35 g ae/ha,60%
same,"HORVS Ob (Observed values, % control)",[2]; Compound 10 70 g ae/ha,75%
same,"HORVS Ob (Observed values, % control)",[2]; Compound 10 140 g ae/ha,85%
same,"LAMPU Ob (Observed values, % control)",[3]; Compound 10 8.75 g ae/ha,95%
same,"LAMPU Ob (Observed values, % control)",[3]; Compound 10 17.5 g ae/ha,95%
same,"LAMPU Ob (Observed values, % control)",[3]; Compound 10 35 g ae/ha,100%
same,"LAMPU Ob (Observed values, % control)",[3]; Compound 10 70 g ae/ha,100%
same,"LAMPU Ob (Observed values, % control)",[3]; Compound 10 140 g ae/ha,100%
same,"KCHSC Ob (Observed values, % control)",[4]; Compound 10 8.75 g ae/ha,98%
same,"KCHSC Ob (Observed values, % control)",[4]; Compound 10 17.5 g ae/ha,98%
same,"KCHSC Ob (Observed values, % control)",[4]; Compound 10 35 g ae/ha,100%
same,"KCHSC Ob (Observed values, % control)",[4]; Compound 10 70 g ae/ha,100%
same,"KCHSC Ob (Observed values, % control)",[4]; Compound 10 140 g ae/ha,100%
same,"PAPRH Ob (Observed values, % control)",[5]; Compound 10 8.75 g ae/ha,100%
same,"PAPRH Ob (Observed values, % control)",[5]; Compound 10 17.5 g ae/ha,100%
same,"PAPRH Ob (Observed values, % control)",[5]; Compound 10 35 g ae/ha,100%
same,"PAPRH Ob (Observed values, % control)",[5]; Compound 10 70 g ae/ha,100%
same,"PAPRH Ob (Observed values, % control)",[5]; Compound 10 140 g ae/ha,100%
same,"VERPE Ob (Observed values, % control)",[6]; Compound 10 8.75 g ae/ha,93%
same,"VERPE Ob (Observed values, % control)",[6]; Compound 10 17.5 g ae/ha,97%
same,"VERPE Ob (Observed values, % control)",[6]; Compound 10 35 g ae/ha,100%
same,"VERPE Ob (Observed values, % control)",[6]; Compound 10 70 g ae/ha,100%
same,"VERPE Ob (Observed values, % control)",[6]; Compound 10 140 g ae/ha,100%
same,"CIRAR Ob (Observed values, % control)",[7]; Compound 10 8.75 g ae/ha,80%
same,"CIRAR Ob (Observed values, % control)",[7]; Compound 10 17.5 g ae/ha,85%
same,"CIRAR Ob (Observed values, % control)",[7]; Compound 10 35 g ae/ha,90%
same,"CIRAR Ob (Observed values, % control)",[7]; Compound 10 70 g ae/ha,90%
same,"CIRAR Ob (Observed values, % control)",[7]; Compound 10 140 g ae/ha,100%
same,"SASKR Ob (Observed values, % control)",[8]; Compound 10 8.75 g ae/ha,85%
same,"SASKR Ob (Observed values, % control)",[8]; Compound 10 17.5 g ae/ha,87%
same,"SASKR Ob (Observed values, % control)",[8]; Compound 10 35 g ae/ha,90%
same,"SASKR Ob (Observed values, % control)",[8]; Compound 10 70 g ae/ha,93%
same,"SASKR Ob (Observed values, % control)",[8]; Compound 10 140 g ae/ha,95%
same,"MATCH Ob (Observed values, % control)",[9]; Compound 10 8.75 g ae/ha,70%
same,"MATCH Ob (Observed values, % control)",[9]; Compound 10 17.5 g ae/ha,90%
same,"MATCH Ob (Observed values, % control)",[9]; Compound 10 35 g ae/ha,93%
same,"MATCH Ob (Observed values, % control)",[9]; Compound 10 70 g ae/ha,95%
same,"MATCH Ob (Observed values, % control)",[9]; Compound 10 140 g ae/ha,100%
same,"SINAR Ob (Observed values, % control)",[10]; Compound 10 8.75 g ae/ha,100%
same,"SINAR Ob (Observed values, % control)",[10]; Compound 10 17.5 g ae/ha,100%
same,"SINAR Ob (Observed values, % control)",[10]; Compound 10 35 g ae/ha,100%
same,"SINAR Ob (Observed values, % control)",[10]; Compound 10 70 g ae/ha,100%
same,"SINAR Ob (Observed values, % control)",[10]; Compound 10 140 g ae/ha,100%
same,"VIOTR Ob (Observed values, % control)",[11]; Compound 10 8.75 g ae/ha,70%
same,"VIOTR Ob (Observed values, % control)",[11]; Compound 10 17.5 g ae/ha,75%
same,"VIOTR Ob (Observed values, % control)",[11]; Compound 10 35 g ae/ha,85%
same,"VIOTR Ob (Observed values, % control)",[11]; Compound 10 70 g ae/ha,93%
same,"VIOTR Ob (Observed values, % control)",[11]; Compound 10 140 g ae/ha,97%
"CCOC(=O)c1nc(C(Cl)(Cl)Cl)n(-c2ccc(Cl)cc2Cl)n1 [Fenchlorazole-ethyl, fenchlorazole-ethyl, reference compound]",pest or weed control at 140 g/ha,"[1]; Triticum aestivum, post-emergence, 480 h, safener alone 140 g ae/ha, 20-22 d, read-out: TRZAS Ob (visual injury)",0%
same,pest or weed control at 140 g/ha,"[2]; Hordeum vulgare, post-emergence, 480 h, safener alone 140 g ae/ha, 20-22 d, read-out: HORVS Ob (visual injury)",0%
same,pest or weed control at 140 g/ha,"[3]; Lamium purpureum, post-emergence, 480 h, safener alone 140 g ae/ha, 20-22 d, read-out: LAMPU Ob (visual injury)",0%
same,CHEAL Ob (visual injury),[12],0%

# — patent US9408387B2, “Safening 6-amino-2-(substituted phenyl)-5-substituted-4-pyrimidinecarboxylate herbicide injury on cereal crops” (Dow AgroSciences LLC, priority 2009, dated 2016)
